Test results reported in PubChem BioAssay AID651809 (Broad Institute, 2012).
Where “and” joins values, the source holds several entries; their conditions need not be identical. Equal values may be shown once. Calls of active or inactive are those of the source. No rule for the calls is given here.

tested on: not listed separately; experiment: Light production activators, luxS cqsA deficient V. cholerae strain, confirmatory dry powder (AID 651809); conditions: V. cholerae BH1578 lux reporter, luminescence, 6 h; at 35 µM (top of the series)

Row | Compound | activation
1 | CNC(=O)Cc1ccc(-c2ccccc2)cc1 | 0.578% (inactive)
2 | Cc1ccc(CC(=O)NC2CCCC2)cc1 | 0.967% (inactive)
3 | O=C(Cc1cccc(-c2ccccc2)c1)NC1CCCC1 | 18% (inactive)
4 | Cn1nnnc1NCc1ccccc1 | -0.011% (inactive)
5 | O=C(Cc1ccccc1C(F)(F)F)NC1CCCC1 | 0.015% (inactive)
6 | CC(C)(C)OC(=O)N1CCC(NC(=O)Cc2ccc(-c3ccccc3)cc2)CC1 | -0.022% (inactive)
7 | Cc1cccc(CC(=O)NC2CCCC2)c1 | 0.44% (inactive)
8 | Cn1nnc(NCc2ccccc2)n1 | -0.02% (inactive)
9 | O=C(Cc1cccnc1)NC1CCCC1 | -0.043% (inactive)
10 | O=C(Cc1ccc(-c2ccccc2)cc1)NC1CCCCC1 | 10.4% (inactive)
11 | COc1ccc(CC(=O)NC2CCCC2)cc1 | 2.06% (inactive)
12 | CCN(Cc1ccc(N2CCCC2)cc1)c1nnnn1CC | 1.22% (inactive)
13 | c1ccc(-c2ccc(CCNC3CCCC3)cc2)cc1 | -0.024% (inactive)
14 | CCn1nnc(NCc2ccc(C(C)C)cc2)n1 | 0.061% (inactive)
15 | O=C(Cc1ccc(-c2ccccc2)cc1)N1CCCCC1 | -0.022% (inactive)
16 | FC(F)(F)c1ccc(CNc2nn[nH]n2)cc1 | -0.017% (inactive)
17 | Cn1nnnc1NCc1ccc(C(F)(F)F)cc1 | 0.204% (inactive)
18 | N#Cc1cccc(CC(=O)NC2CCCC2)c1 | -0.04% (inactive)
19 | c1cc(N2CCCC2)ccc1CNc1nn[nH]n1 | -0.038% (inactive)
20 | O=C(Cc1ccccc1-c1ccccc1)NC1CCCC1 | -0.016% (inactive)
21 | O=C(Cc1ccc(-c2ccccc2)cc1)NC1CCNCC1 | 0.085% (inactive)
22 | COc1cccc(CC(=O)NC2CCCC2)c1 | -0.014% (inactive)
23 | c1ccc(CNc2nn[nH]n2)cc1 | 0.04% (inactive)
24 | Cn1nnc(NCc2ccc(C(F)(F)F)cc2)n1 | 1.48% (inactive)
25 | O=C(Cc1ccccc1I)NC1CCCC1 | 0.012% (inactive)
26 | CN(C)C(=O)Cc1ccc(-c2ccccc2)cc1 | 0.185% (inactive)

Row | Compound | activation
27 | O=C(Cc1cccc(Cl)c1)NC1CCCC1 | 0.144% (inactive)
28 | O=C(Cc1cccc(OC(F)(F)F)c1)NC1CCCC1 | 1.1% (inactive)
29 | O=C(Cc1ccccc1Cl)NC1CCCC1 | 0.002% (inactive)
30 | CN(Cc1ccc(N2CCCC2)cc1)c1nnn(C)n1 | -0.005% (inactive)
31 | O=C(Cc1ccncc1)NC1CCCC1 | 0.026% (inactive)
32 | CS(=O)(=O)c1cccc(CC(=O)NC2CCCC2)c1 | 0.049% (inactive)
33 | CC(C)n1nnnc1NCc1ccc(N2CCCC2)cc1 | 133% (inactive)
34 | O=C(NCc1ccc(-c2ccccc2)cc1)C1CCCC1 | 0.158% (inactive) and 0.134% (inactive)
35 | O=C(Cc1cccc(F)c1)NC1CCCC1 | 0.009% (inactive)
36 | COc1ccccc1CC(=O)NC1CCCC1 | 0.627% (inactive)
37 | CCn1nnc(NCc2ccc(C(F)(F)F)cc2)n1 | -0.033% (inactive)
38 | CC(C(=O)NC1CCCC1)c1ccc(-c2ccccc2)cc1 (stereo not given) | -0.069% (inactive)
39 | O=C(Cc1ccccc1OC(F)(F)F)NC1CCCC1 | 0.011% (inactive)
40 | CC(C)c1ccc(CNc2nn[nH]n2)cc1 | 0.032% (inactive)
41 | Cn1nnc(NCc2ccc(N3CCCC3)cc2)n1 | 0.034% (inactive)
42 | O=C(Cc1ccc(-c2ccccc2)cc1)Nc1ccccc1 | 0.038% (inactive)
43 | O=C(O)Cc1ccc(-c2ccccc2)cc1 | 0.008% (inactive)
44 | O=C(Cc1ccc(OC(F)(F)F)cc1)NC1CCCC1 | 1.25% (inactive)
45 | CCn1nnnc1NCc1cccn1C | -0.015% (inactive)
46 | O=C(Cc1ccc(-c2ccccc2)cc1)N1CCCC1 | 0.018% (inactive)
47 | O=C(Cc1ccc2ccccc2c1)NC1CCCC1 | 1.41% (inactive)
48 | O=C(Cc1ccc(C(F)(F)F)cc1)NC1CCCC1 | 0.008% (inactive)
49 | O=C(Cc1ccc(-c2ccccc2)cc1)N1CCC(F)(F)CC1 | -0.007% (inactive)
50 | CCn1nnnc1NC(=O)c1ccc(N2CCCC2)cc1 | 0.669% (inactive)
51 | O=C(Cc1ccc(-c2ccccc2)cc1)N1CC(F)(F)C1 | 1.11% (inactive)
52 | CS(=O)(=O)c1ccc(CC(=O)NC2CCCC2)cc1 | -0.009% (inactive)

Row | Compound | activation
53 | O=C(Cc1ccc(-c2ccccc2)cc1)NCC1CCCC1 | 0.056% (inactive)
54 | O=C(NC1CCCC1)Oc1ccc(-c2ccccc2)cc1 | -0.045% (inactive)
55 | CCc1ccc(C(=O)Nc2nnnn2CC)cc1 | -0.042% (inactive)
56 | O=C(Cc1ccc(Cl)cc1)NC1CCCC1 | 0.645% (inactive)
57 | O=C(Cc1ccccc1F)NC1CCCC1 | 0.011% (inactive)
58 | CCn1nnnc1NCc1ccccc1 | 0.115% (inactive)
59 | O=C(Cc1ccccn1)NC1CCCC1 | 0.07% (inactive)
60 | O=C(Cc1cccc(C(F)(F)F)c1)NC1CCCC1 | 0.024% (inactive)
61 | CN(C(=O)Cc1ccc(-c2ccccc2)cc1)C1CCCC1 | 0.648% (inactive)
62 | O=C(Cc1ccc(-c2ccncc2)cc1)NC1CCCC1 | 1.61% (inactive)
63 | O=C(Cc1ccc(-c2ccccc2)cc1)N1CCC1 | 1.77% (inactive)
64 | O=C(Cc1ccc(-c2cccnc2)cc1)NC1CCCC1 | 15.8% (inactive)
65 | CCn1nnc(NCc2ccc(N3CCCC3)cc2)n1 | -0.042% (inactive) and -0.061% (inactive)
66 | O=C(Cc1ccccc1)NC1CCCC1 | -0.05% (inactive)
67 | O=C(Cc1ccc(-c2ccccc2)cc1)N1CCOCC1 | 0.215% (inactive)
68 | CCn1nnc(NCc2ccccc2)n1 | 0.35% (inactive)
69 | O=C(Cc1ccc(F)cc1)NC1CCCC1 | 0.012% (inactive)
70 | CN(Cc1ccc(N2CCCC2)cc1)c1nnnn1C | 14.6% (inactive)
71 | CC(C)c1ccc(CNc2nnn(C)n2)cc1 | 0.033% (inactive)
72 | CC(C)n1nnc(NCc2ccc(N3CCCC3)cc2)n1 | -0.029% (inactive)
73 | O=C(Nc1ccc(-c2ccccc2)cc1)NC1CCCC1 | 0.069% (inactive)
74 | CN1CCN(C(=O)Cc2ccc(-c3ccccc3)cc2)CC1 | -0.018% (inactive)
75 | O=C(CCc1ccc(-c2ccccc2)cc1)NC1CCCC1 | -0.057% (inactive)
76 | CN1CCC(NC(=O)Cc2ccc(-c3ccccc3)cc2)CC1 | 3.34% (inactive)
77 | O=C(Cc1ccc(-c2ccccc2)cc1)NCc1ccccc1 | 0.004% (inactive)
78 | N#Cc1ccc(CC(=O)NC2CCCC2)cc1 | -0.056% (inactive)

tested on: V. cholerae BH1578 lux reporter, luminescence, 6 h; experiment: as above; conditions: not given

Row | Compound | AC40
79 | CCCn1nnnc1NCc1ccc(C(C)C)cc1 | 0.529 µM
80 | CCC(C)NC(=O)Cc1ccc(-c2ccccc2)cc1 (stereo not given) | 5.16 µM
81 | CCNC(=O)Cc1ccc(-c2ccccc2)cc1 | > 35 µM (inactive)
82 | CC(C)c1ccc(CNc2nnnn2C)cc1 | 4.17 µM
83 | O=C(Cc1ccc(-c2ccccc2)cc1)NC1CCC1 | 0.499 µM
84 | O=C(Cc1ccc(-c2ccccc2)cc1)NC1CCOCC1 | 5.66 µM
85 | CCC(CC)NC(=O)Cc1ccc(-c2ccccc2)cc1 | 4.42 µM
86 | CC(C)NC(=O)Cc1ccc(-c2ccccc2)cc1 | 1.9 µM
87 | Cc1ccccc1CC(=O)NC1CCCC1 | 7.56 µM
88 | O=C(Cc1ccc(-c2ccccn2)cc1)NC1CCCC1 | 10.5 µM
89 | Cn1nnnc1NCc1ccc(N2CCCC2)cc1 | 1.03 µM
90 | CCn1nnnc1NCc1ccc(N2CCCC2)cc1 | 0.149 µM and < 0.135 µM
91 | O=C(Cc1ccc(-c2ccccc2)cc1)NC1CCCC1 | 0.89 µM and 0.645 µM
92 | O=C(Nc1nnc(-c2ccc3c(c2)OCCO3)o1)C1CCCCC1 | 2.29 µM
93 | CCn1nnnc1NCc1ccc(C(C)C)cc1 | 0.187 µM
94 | Cc1ccc2cc3c(NC(=O)c4ccco4)nn(C)c3nc2c1 | 10.4 µM
95 | CCn1nnnc1NCc1ccc(C(F)(F)F)cc1 | 17.8 µM
